In ChEMBL document CHEMBL1130488, “1,4-Diaryl-2-oxo-1,2-dihydro-quinoline-3-carboxylic acids as endothelin receptor antagonists” (Bioorg Med Chem Lett, 1997):

What follows are compounds tested against T1, Endothelin-1 receptor (Rattus norvegicus, UniProt P26684) (assay: Inhibition of [125I]ET1 binding to rat aorta membranes(ETA)). Conditions: not given.
T1 sequence (P26684 whole entry): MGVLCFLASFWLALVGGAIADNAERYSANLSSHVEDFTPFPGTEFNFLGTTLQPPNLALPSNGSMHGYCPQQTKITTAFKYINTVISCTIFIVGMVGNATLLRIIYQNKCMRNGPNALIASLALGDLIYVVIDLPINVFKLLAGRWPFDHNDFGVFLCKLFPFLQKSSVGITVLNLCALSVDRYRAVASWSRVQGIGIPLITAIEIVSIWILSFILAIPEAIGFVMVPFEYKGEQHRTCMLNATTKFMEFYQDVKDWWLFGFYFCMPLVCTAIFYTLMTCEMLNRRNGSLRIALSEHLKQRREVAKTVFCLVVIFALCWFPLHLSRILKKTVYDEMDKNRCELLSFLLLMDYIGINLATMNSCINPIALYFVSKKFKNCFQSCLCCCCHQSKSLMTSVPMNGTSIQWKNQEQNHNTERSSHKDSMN
Type: cell membranes, Membrane

IC50 [µM] | SMILES
1.3 | CCOc1ccc2c(c1)c(-c1ccc(OC)cc1)c(C(=O)O)c(=O)n2Cc1ccccc1OC
2.4 | COc1ccc(Cn2c(=O)c(C(=O)O)c(-c3ccc4c(c3)OCO4)c3ccccc32)cc1
> 10 | O=C(O)c1c(-c2ccc3c(c2)OCO3)c2ccccc2n(Cc2ccccc2)c1=O
0.38 | CCOc1ccc2c(c1)c(-c1ccc3c(c1)OCO3)c(C(=O)O)c(=O)n2Cc1ccccc1OC
130 | CCOc1ccc2c(c1)c(-c1ccc3c(c1)OCO3)c(C(=O)O)n2Cc1ccc(OC)cc1
1.2 | CCOc1ccc2c(c1)c(-c1ccc(OC)cc1OC)c(C(=O)O)c(=O)n2Cc1ccccc1OC
2 | COc1ccccc1Cn1c(=O)c(C(=O)O)c(-c2ccc3c(c2)OCO3)c2ccccc21
2.6 | O=C(O)c1c(-c2ccc3c(c2)OCO3)c2ccccc2n(Cc2ccc3c(c2)OCO3)c1=O
1.5 | CCc1ccc2c(c1)c(-c1ccc3c(c1)OCO3)c(C(=O)O)c(=O)n2Cc1ccccc1OC
3.3 | COc1ccccc1Cn1c(=O)c(C(=O)O)c(-c2ccc3c(c2)OCO3)c2c(OC)c(OC)ccc21
> 10 | COc1ccccc1Cn1c(=O)c(CC(=O)O)c(-c2ccc3c(c2)OCO3)c2ccccc21
> 10 | COc1cccc(Cn2c(=O)c(C(=O)O)c(-c3ccc4c(c3)OCO4)c3ccccc32)c1
0.26 | CCOc1ccc2c(c1)c(-c1ccc(OC)cc1)c(C(=O)O)c(=O)n2Cc1cc(OC)ccc1OC

What follows are compounds tested against T1, Endothelin-1 receptor (assay: Functional antagonism against ETA receptor in rat aortic rings expressed as pA2 value). Conditions: read-out: pA2 (converted).

Kb [µM] | SMILES
0.398 | CCOc1ccc2c(c1)c(-c1ccc3c(c1)OCO3)c(C(=O)O)n2Cc1ccc(OC)cc1
6.31 | CCOc1ccc2c(c1)c(-c1ccc(OC)cc1)c(C(=O)O)c(=O)n2Cc1cc(OC)ccc1OC
